± gives the expanded uncertainty stated by the source.
Columns and labels:
[1] = 83 kPa, Liquid; for speed of sound: Frequency=3 MHz, Single path-length method; for mass density: Vibrating tube method
[2] = molar heat capacity at constant pressure; details: 83 kPa, Liquid, DSC

CCCCC(=O)OCC(COC(=O)CCCC)(COC(=O)CCCC)COC(=O)CCCC [pentaerythritol tetrapentanoate]
Details | mass density [kg/m3] | molar heat capacity at constant pressure [J/K/mol] | speed of sound [m/s]
[1], 278.15 K | 1030.29 ± 2.8 | – | 1417.7 ± 3.7
[1], 283.15 K | 1026.21 ± 2.8 | – | 1400.3 ± 3.7
[1], 288.15 K | 1022.14 ± 2.7 | – | 1383.2 ± 3.7
[1], 293.15 K | 1018.08 ± 2.7 | – | 1366.2 ± 3.7
[1], 298.15 K | 1014.04 ± 2.7 | – | 1349.3 ± 3.7
[1], 303.15 K | 1010 ± 2.7 | – | 1332.7 ± 3.7
[1], 308.15 K | 1005.97 ± 2.7 | – | 1316.2 ± 3.7
[1], 313.15 K | 1001.94 ± 2.7 | – | 1299.8 ± 3.7
[1], 318.15 K | 997.92 ± 2.7 | – | 1283.6 ± 3.7
[1], 323.15 K | 993.9 ± 2.6 | – | 1267.6 ± 3.7
[1], 328.15 K | 989.89 ± 2.6 | – | 1251.8 ± 3.7
[1], 333.15 K | 985.88 ± 2.6 | – | 1236.1 ± 3.7
[1], 338.15 K | 981.88 ± 2.6 | – | 1220.5 ± 3.7
[1], 343.15 K | 977.88 ± 2.6 | – | 1205.2 ± 3.7
[2], 263.14 K | – | 805.33 ± 34 | –
[2], 264.15 K | – | 806.28 ± 34 | –
[2], 265.15 K | – | 807.22 ± 34 | –
[2], 266.14 K | – | 808.17 ± 34 | –
[2], 267.14 K | – | 809.11 ± 35 | –
[2], 268.15 K | – | 809.58 ± 35 | –
[2], 269.14 K | – | 810.53 ± 35 | –
[2], 270.14 K | – | 811.47 ± 35 | –
[2], 271.15 K | – | 812.42 ± 35 | –
[2], 272.14 K | – | 813.37 ± 35 | –
[2], 273.14 K | – | 814.78 ± 35 | –
[2], 274.14 K | – | 815.73 ± 35 | –
[2], 275.15 K | – | 816.67 ± 34 | –
[2], 276.14 K | – | 817.62 ± 35 | –
[2], 277.14 K | – | 819.04 ± 35 | –
[2], 278.15 K | – | 819.98 ± 35 | –
[2], 279.15 K | – | 820.93 ± 35 | –
[2], 280.15 K | – | 821.87 ± 35 | –
[2], 281.14 K | – | 822.82 ± 35 | –
[2], 282.15 K | – | 823.76 ± 35 | –
[2], 283.15 K | – | 824.71 ± 34 | –
[2], 284.15 K | – | 825.65 ± 35 | –
[2], 285.15 K | – | 827.07 ± 35 | –
[2], 286.14 K | – | 828.02 ± 35 | –
[2], 287.14 K | – | 828.96 ± 35 | –
[2], 288.15 K | – | 829.91 ± 35 | –
[2], 289.15 K | – | 831.32 ± 35 | –
[2], 290.14 K | – | 832.27 ± 35 | –
[2], 291.14 K | – | 833.69 ± 35 | –
[2], 292.14 K | – | 835.11 ± 35 | –
[2], 293.14 K | – | 836.05 ± 35 | –
[2], 294.15 K | – | 837.47 ± 35 | –
[2], 295.14 K | – | 838.89 ± 35 | –
[2], 296.15 K | – | 839.83 ± 35 | –
[2], 297.14 K | – | 841.25 ± 35 | –
[2], 298.14 K | – | 842.67 ± 35 | –
[2], 299.15 K | – | 843.61 ± 35 | –
[2], 300.14 K | – | 845.03 ± 35 | –
[2], 301.15 K | – | 846.45 ± 35 | –
[2], 302.14 K | – | 847.39 ± 35 | –
[2], 303.15 K | – | 848.81 ± 35 | –
[2], 304.15 K | – | 850.23 ± 35 | –
[2], 305.14 K | – | 851.17 ± 35 | –
[2], 306.15 K | – | 852.12 ± 35 | –
[2], 307.15 K | – | 853.54 ± 35 | –
[2], 308.14 K | – | 854.48 ± 35 | –
[2], 309.14 K | – | 855.9 ± 35 | –
[2], 310.15 K | – | 857.32 ± 35 | –
[2], 311.15 K | – | 858.26 ± 35 | –
[2], 312.14 K | – | 859.68 ± 35 | –
[2], 313.15 K | – | 860.63 ± 35 | –
[2], 314.14 K | – | 862.04 ± 35 | –
[2], 315.15 K | – | 863.46 ± 35 | –
[2], 316.14 K | – | 864.41 ± 35 | –
[2], 317.15 K | – | 865.83 ± 35 | –
[2], 318.15 K | – | 866.77 ± 35 | –
[2], 319.14 K | – | 868.19 ± 35 | –
[2], 320.15 K | – | 869.61 ± 35 | –
[2], 321.15 K | – | 870.55 ± 35 | –
[2], 322.14 K | – | 871.97 ± 35 | –
[2], 323.14 K | – | 873.39 ± 35 | –
[2], 324.15 K | – | 874.33 ± 35 | –
[2], 325.14 K | – | 875.75 ± 35 | –
[2], 326.15 K | – | 876.7 ± 35 | –
[2], 327.15 K | – | 878.11 ± 35 | –
[2], 328.15 K | – | 879.53 ± 35 | –
[2], 329.14 K | – | 880.48 ± 36 | –
[2], 330.15 K | – | 881.89 ± 36 | –
[2], 331.15 K | – | 883.31 ± 36 | –
[2], 332.14 K | – | 884.26 ± 36 | –
[2], 333.14 K | – | 885.68 ± 36 | –
[2], 334.15 K | – | 887.09 ± 36 | –
[2], 335.14 K | – | 888.51 ± 36 | –
[2], 336.14 K | – | 889.93 ± 36 | –
[2], 337.14 K | – | 891.35 ± 36 | –
[2], 338.14 K | – | 892.29 ± 36 | –
[2], 339.15 K | – | 893.71 ± 36 | –
[2], 340.14 K | – | 895.13 ± 36 | –
[2], 341.14 K | – | 896.07 ± 36 | –
[2], 342.15 K | – | 897.02 ± 36 | –
[2], 343.14 K | – | 898.44 ± 36 | –
[2], 344.15 K | – | 899.38 ± 36 | –
[2], 345.15 K | – | 900.8 ± 36 | –
[2], 346.15 K | – | 902.22 ± 36 | –
[2], 347.14 K | – | 903.16 ± 36 | –
[2], 348.14 K | – | 904.58 ± 36 | –
[2], 349.15 K | – | 906 ± 36 | –
[2], 350.14 K | – | 907.42 ± 36 | –
[2], 351.14 K | – | 908.36 ± 36 | –
[2], 352.14 K | – | 909.78 ± 36 | –
[2], 353.14 K | – | 911.2 ± 37 | –
[2], 354.15 K | – | 912.61 ± 37 | –
[2], 355.14 K | – | 913.56 ± 37 | –
[2], 356.15 K | – | 914.98 ± 37 | –
[2], 357.15 K | – | 916.39 ± 37 | –
[2], 358.14 K | – | 917.81 ± 37 | –
[2], 359.15 K | – | 918.76 ± 37 | –
[2], 360.15 K | – | 920.18 ± 37 | –
[2], 361.14 K | – | 921.59 ± 37 | –
[2], 362.15 K | – | 922.54 ± 37 | –
[2], 363.15 K | – | 923.96 ± 37 | –
[2], 364.14 K | – | 925.37 ± 37 | –
[2], 365.14 K | – | 926.79 ± 37 | –
[2], 366.15 K | – | 927.74 ± 37 | –
[2], 367.14 K | – | 929.16 ± 37 | –
[2], 368.14 K | – | 930.57 ± 37 | –
[2], 369.14 K | – | 931.99 ± 37 | –
[2], 370.14 K | – | 933.41 ± 37 | –
[2], 371.15 K | – | 934.35 ± 37 | –
[2], 372.14 K | – | 935.77 ± 37 | –
[2], 373.14 K | – | 937.19 ± 37 | –
[2], 374.15 K | – | 938.61 ± 37 | –
[2], 375.14 K | – | 939.55 ± 38 | –
[2], 376.14 K | – | 940.97 ± 38 | –
[2], 377.14 K | – | 942.39 ± 38 | –
[2], 378.15 K | – | 943.81 ± 38 | –
[2], 379.15 K | – | 944.75 ± 38 | –
[2], 380.14 K | – | 946.17 ± 38 | –
[2], 381.15 K | – | 947.59 ± 38 | –
[2], 382.14 K | – | 949.01 ± 38 | –
[2], 383.14 K | – | 950.42 ± 38 | –
[2], 384.14 K | – | 951.84 ± 38 | –
[2], 385.15 K | – | 952.79 ± 38 | –
[2], 386.14 K | – | 954.2 ± 38 | –
[2], 387.14 K | – | 955.62 ± 38 | –
[2], 388.15 K | – | 957.04 ± 38 | –
[2], 389.15 K | – | 957.98 ± 38 | –
[2], 390.14 K | – | 959.4 ± 38 | –
[2], 391.15 K | – | 960.82 ± 38 | –
[2], 392.15 K | – | 961.77 ± 38 | –
[2], 393.15 K | – | 963.18 ± 39 | –
[2], 394.15 K | – | 964.13 ± 39 | –
[2], 395.15 K | – | 965.55 ± 39 | –
[2], 396.14 K | – | 966.96 ± 39 | –
[2], 397.14 K | – | 968.38 ± 39 | –
[2], 398.14 K | – | 969.8 ± 39 | –
[2], 399.14 K | – | 971.22 ± 39 | –
[2], 400.15 K | – | 972.16 ± 39 | –
[2], 401.14 K | – | 973.58 ± 39 | –
[2], 402.14 K | – | 975 ± 39 | –
[2], 403.15 K | – | 975.94 ± 39 | –
[2], 404.15 K | – | 977.36 ± 39 | –
[2], 405.14 K | – | 978.78 ± 39 | –
[2], 406.15 K | – | 979.72 ± 39 | –
[2], 407.14 K | – | 981.14 ± 39 | –
[2], 408.14 K | – | 982.56 ± 39 | –
[2], 409.14 K | – | 983.51 ± 39 | –
[2], 410.15 K | – | 984.92 ± 39 | –
[2], 411.15 K | – | 986.34 ± 39 | –
[2], 412.14 K | – | 987.76 ± 40 | –
[2], 413.15 K | – | 988.7 ± 40 | –
[2], 414.15 K | – | 990.12 ± 40 | –
[2], 415.15 K | – | 991.54 ± 40 | –
[2], 416.14 K | – | 992.96 ± 40 | –
[2], 417.15 K | – | 993.9 ± 40 | –
[2], 418.15 K | – | 995.32 ± 40 | –
[2], 419.15 K | – | 996.27 ± 40 | –
[2], 420.14 K | – | 997.68 ± 40 | –
[2], 421.15 K | – | 999.1 ± 40 | –
[2], 422.15 K | – | 1000 ± 40 | –
[2], 423.15 K | – | 1001.5 ± 40 | –
[2], 424.14 K | – | 1002.9 ± 40 | –
[2], 425.15 K | – | 1004.3 ± 40 | –
[2], 426.15 K | – | 1005.2 ± 41 | –
[2], 427.14 K | – | 1006.7 ± 41 | –
[2], 428.15 K | – | 1008.1 ± 41 | –
[2], 429.15 K | – | 1009 ± 41 | –
[2], 430.14 K | – | 1010.4 ± 41 | –
[2], 431.15 K | – | 1011.4 ± 41 | –
[2], 432.15 K | – | 1012.8 ± 41 | –

Reference: the NIST ThermoML archive (doi:10.1021/acs.jced.8b00358)
